For this experiment, the target named is human TRPA1 (Homo sapiens, UniProt O75762). The experiment in a line: cell-based. The note with it: read-out: Activity (IC50).

A word on the IC50: it is the point on the concentration scale where inhibition reaches its midpoint.

Chain of human TRPA1 (O75762 whole entry): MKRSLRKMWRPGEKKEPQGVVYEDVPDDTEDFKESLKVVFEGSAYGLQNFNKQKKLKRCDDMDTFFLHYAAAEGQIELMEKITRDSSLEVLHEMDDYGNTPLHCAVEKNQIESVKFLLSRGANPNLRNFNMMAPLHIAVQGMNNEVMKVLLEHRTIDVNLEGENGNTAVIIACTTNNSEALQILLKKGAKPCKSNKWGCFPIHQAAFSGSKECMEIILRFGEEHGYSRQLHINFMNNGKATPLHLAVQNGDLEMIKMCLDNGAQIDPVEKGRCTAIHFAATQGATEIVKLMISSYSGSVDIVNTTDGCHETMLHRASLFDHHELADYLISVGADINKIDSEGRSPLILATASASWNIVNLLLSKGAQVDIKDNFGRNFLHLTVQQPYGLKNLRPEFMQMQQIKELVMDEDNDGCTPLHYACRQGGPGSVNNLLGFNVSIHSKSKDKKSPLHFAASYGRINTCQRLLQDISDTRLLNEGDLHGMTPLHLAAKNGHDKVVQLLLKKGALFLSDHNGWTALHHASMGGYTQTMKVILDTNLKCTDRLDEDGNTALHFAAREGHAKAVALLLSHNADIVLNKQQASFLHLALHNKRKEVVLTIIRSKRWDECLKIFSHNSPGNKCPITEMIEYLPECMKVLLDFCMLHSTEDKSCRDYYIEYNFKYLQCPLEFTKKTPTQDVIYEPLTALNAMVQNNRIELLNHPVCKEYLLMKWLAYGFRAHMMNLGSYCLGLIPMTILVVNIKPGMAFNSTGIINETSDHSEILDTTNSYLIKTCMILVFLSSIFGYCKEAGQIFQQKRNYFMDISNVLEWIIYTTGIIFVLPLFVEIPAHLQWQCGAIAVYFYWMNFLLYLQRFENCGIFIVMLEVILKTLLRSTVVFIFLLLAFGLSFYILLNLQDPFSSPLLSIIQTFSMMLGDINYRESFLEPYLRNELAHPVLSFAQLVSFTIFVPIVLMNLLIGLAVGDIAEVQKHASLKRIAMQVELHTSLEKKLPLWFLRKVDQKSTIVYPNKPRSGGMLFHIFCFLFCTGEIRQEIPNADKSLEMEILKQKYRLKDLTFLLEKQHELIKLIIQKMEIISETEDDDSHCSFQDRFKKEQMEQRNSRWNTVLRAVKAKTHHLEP

In the case of `C=CCOc1cccc(C2NC(=O)NC3=C2C(=O)c2ccccc23)c1C(F)(F)F` (stereo not shown) [Compound 642], the IC50 was above 1000 nM.

Values taken from patent US8530487B1 (priority 2009, dated 2013).
